Our source for the Kd values is US9625458B2, “Biosensor” (priority 2002, dated 2017).

Assay [1] has as its target E. coli histidine binding protein (SEQ ID NO:2) variant E167C, fluorophore conjugate (Escherichia coli, UniProt P0AEU0, E189C). Briefly: biochemical. An excerpt:
(§1) Molecular Cloning. […] Amplified products were cloned into one of the protein expression vectors pAED4 (Doering, “Functional and structural studies of a small f-actin binding domain” in Ph.D. thesis, Massachusetts Institute of Technology, 1992); pKK223-3 (Brosius & Holy, Proc. Natl. Acad. Sci. USA 81:6929-6933, 1984); or pET vectors (Studier et al., Meth. Enzymol. 185:60-89, 1990) (Novagen). N-terminal oligonucleotide primers were designed to clone only the processed periplasmic form, deleting the signal sequence. The C-terminal primer was designed to append the sequence Gly-Ser-Gly-(His)n or Gly-Ser-(His)n, where n=5, 6, or 10. Two tandem stop codons (TAATGA) follow the last His codon. […] Single amino acid substitutions were generated by overlapping PCR mutagenesis (Ho et al., Gene 77:51-59, 1989). All clones and mutations were confirmed by nucleotide sequencing. In the case of arabinose BP, the single cysteine in the wild type sequence was replaced by alanine to eliminate the possibility of reporter group conjugation to this thiol (Miller et al., J. Biol. Chem. 254:7521-7528, 1979). Additionally the sequence of Fe(III) BP was mutated by substitution of Glu57 with Asp to raise the Kd to a concentration range conveniently measured using Fe(III) citrate.
(§2) Fluorophore conjugation to cysteine-substituted bPBPs. Thiol-reactive fluorophores obtained from Molecular Probes (Eugene, Oreg.) were 5-iodoacetamidofluorescein (fluorescein); N-(1-pyrene) iodoacetamide (pyrene); N,N′-dimethyl-N-(iodoacetyl)-N′-(7-nitrobenz-2-oxa-1,3-diazol-4-yl)ethylenediamide (NBD); N-((2-(iodoacetoxy)ethyl)-N-methyl)amino-7-nitrobenz-2-oxa-1,3-diazole (NBDE); and 6-acryloyl-2-dimethylaminonaphthalene (acrylodan). The styryl and naphthyl dyes JPW4039, JPW4042, and JPW4045 (FIG. 3) were synthesized at the University of Connecticut. All fluorophore conjugation steps were typically carried out at room temperature. To protein at a concentration of 100 μM was added tris-(2-carboxyethyl)phosphine HCl to a five-fold molar excess to reduce intermolecular disulfide bonds. A thiol-reactive fluorophore (20 to 25 mM in acetonitrile or dimethyl sulfoxide) was added in small aliquots to a five-fold molar excess over protein. Conjugation proceeded in the dark at room temperature for 4 hours, or overnight at 4° C. Separation of protein from unreacted fluorophore was achieved by exhaustive dialysis or by size-exclusion chromatography. The efficiency of reporter group attachment was assessed by determination of unreacted thiol with Ellman's reagent (Ellman, Arch. Biochem. Biophys. 74:443-450, 1958) or by measuring the ratio of fluorophore to protein from absorbance spectra of the purified conjugate.
(§3) Fluorimetry. All measurements were conducted with an SLM Aminco-Bowman series 2 fluorimeter, with sample stirring at 25° C. Fluorescence emission spectra were acquired with excitation and emission slit widths of 4 and 8 nm, respectively. Photomultiplier tube potential was maintained between 400 and 800 volts. Protein concentrations were in the range of 50 to 1000 nM. […]
(§4) Analyte affinity measurements. […] The emission wavelength monitored was that of maximum difference in intensity between the ligand-free and bound states. For each conjugate, fluorescence intensiometric observations were fit to a hyperbolic binding isotherm for a two-state model (Marvin et al., Proc. Natl. Acad. Sci. USA 94:4366-4371, 1997): […]

In assay [2] the target is E. coli histidine binding protein (SEQ ID NO:2) variant V163C, fluorophore conjugate (Escherichia coli, UniProt P0AEU0, V185C). Briefly: biochemical.
Description: as §1, §2, §3, §4

Assay [3] deals with E. coli histidine binding protein (HBP, SEQ ID NO:2), fluorophore-conjugated cysteine mutants (Escherichia coli, UniProt P0AEU0). Particulars: read-out: range of Kd; range over conjugates, n=4. An excerpt:
Molecular Cloning. […] Amplified products were cloned into one of the protein expression vectors pAED4 (Doering, “Functional and structural studies of a small f-actin binding domain” in Ph.D. thesis, Massachusetts Institute of Technology, 1992); pKK223-3 (Brosius & Holy, Proc. Natl. Acad. Sci. USA 81:6929-6933, 1984); or pET vectors (Studier et al., Meth. Enzymol. 185:60-89, 1990) (Novagen). N-terminal oligonucleotide primers were designed to clone only the processed periplasmic form, deleting the signal sequence. The C-terminal primer was designed to append the sequence Gly-Ser-Gly-(His)n or Gly-Ser-(His)n, where n=5, 6, or 10. Two tandem stop codons (TAATGA) follow the last His codon. […] Additionally the sequence of Fe(III) BP was mutated by substitution of Glu57 with Asp to raise the Kd to a concentration range conveniently measured using Fe(III) citrate.
Fluorophore conjugation to cysteine-substituted bPBPs. […] The efficiency of reporter group attachment was assessed by determination of unreacted thiol with Ellman's reagent (Ellman, Arch. Biochem. Biophys. 74:443-450, 1958) or by measuring the ratio of fluorophore to protein from absorbance spectra of the purified conjugate.
Fluorimetry. […] Fluorescence emission spectra were acquired with excitation and emission slit widths of 4 and 8 nm, respectively. […]

Usually Kd stands for the free concentration of one partner at which half of the binding sites on the other are occupied at equilibrium, for simple one-to-one binding.

For `N[C@@H](Cc1c[nH]cn1)C(=O)O` [histidine], the Kd in assay [1] was 60 nM; in assay [2] (Acrylodan conjugate, peristeric site), 400 nM; in assay [2] (JPW4042 conjugate, peristeric site), 250 nM; in assay [2] (NBD conjugate, peristeric site) it was 2370 nM; in assay [2] (V163C-JPW4042), 250 nM; in assay [3], 60 to 2370 nM.
